Target: biotinylated KRAS G12C protein (GMP-PNP loaded) and GST-tagged Ras binding domain of c-RAF (Homo sapiens, UniProt P01116, C118S/C51S/C80L/G12C)
Experiment: RAS:RAF-RBD binding assay (TR-FRET)
Settings: 30-minute incubation of compound with KRAS G12C before RAF-RBD; Table 4; read-out: IC50

Row | Compound | IC50 [nM]
1 | Cc1nc2c3c(c(C(F)(F)F)cc2n1C)-c1cccn2c(C(=O)c4cc(F)c(NC(=O)/C=C/CN5C[C@H](O)[C@@H](F)C5)c(F)c4)cc(c12)CCO3 [Example 275, (3S,4S)-1-((E)-4-((4-(9,10-dimethyl-7-(trifluorometh-yl)-13,14-dihydro-9H-imidazo[4″,5″:5′,6′]benzo-[1′,2′:2,3]oxocino[4,5,6-hi]indolizine-2-carbonyl)-2,6-difluorophenyl)amino)-4-oxobut-2-en-1-yl)-3-fluoro-4-hydroxypyrrol-idin-1-ium 2,2,2-trifluoro-acetate] | 57.5
2 | Cc1nc2c3c(c(C(F)(F)F)cc2n1C)-c1cccn2c(C(=O)c4cc(F)c(NC(=O)/C=C/CNCC5(F)CC5)c(F)c4)cc(c12)CCO3 [Example 276, (E)-4-((4-(9,10-dimethyl-7-(trifluoromethyl)-13,14-dihydro-9H-imidazo-[4″,5″:5′,6′]benzo[1′,2′: 2,3]oxocino[4,5,6-hi]-indolizine-2-carbonyl)-2,6-difluorophenyl)-amino)-N-((1-fluorocyclo-propyl)methyl)-4-oxobut-2-en-1-aminium 2,2,2-trifluoroacetate] | 8.05
3 | Cc1nc2c3c(c(C(F)(F)F)cc2n1C)-c1cccn2c(C(=O)c4cc(F)c(NC(=O)/C=C/CNC5CC(F)(F)C5)c(F)c4)cc(c12)CCO3 [Example 277, (E)-N-(4-((4-(9,10-dimethyl-7-(trifluoro-methyl)-13,14-dihydro-9H-imidazo[4″,5″:5′,6′]-benzo[1′,2′:2,3]oxocino-[4,5,6-hi]indolizine-2-carbonyl)-2,6-difluoro-phenyl)amino)-4-oxobut-2-en-1-yl)-3,3-difluoro-cyclobutan-1-aminium 2,2,2-trifluoroacetate] | 26.4
4 | Cc1nc2c3c(c(C(F)(F)F)cc2n1C)-c1cccn2c(C(=O)c4cc(F)c(NC(=O)/C=C/CNCC5(CO)COC5)c(F)c4)cc(c12)CCO3 [Example 279, (E)-4-((4-(9,10-dimethyl-7-(trifluoromethyl)-13,14-dihydro-9H-imidazo-[4″,5″:5′,6′]benzo[1′,2′: 2,3]oxocino[4,5,6-hi]-indolizine-2-carbonyl)-2,6-difluorophenyl)amino)-N-((3-(hydroxymethyl)oxetan-3-yl)methyl)-4-oxobut-2-en-1-aminium 2,2,2-trifluoroacetate] | 5.73
5 | Cc1nc2c3c(c(C(F)(F)F)cc2n1C)-c1cccn2c(C(=O)c4cc(F)c(NC(=O)/C=C/CN5CC6(CCOCC6)C5)c(F)c4)cc(c12)CCO3 [Example 280, (E)-2-(4-((4-(9,10-dimeth-yl-7-(trifluoromethyl)-13,14-dihydro-9H-imidazo[4″,5″:5′,6′]benzo-[1′,2′:2,3]oxocino[4,5,6-hi]indolizine-2-carbonyl)-2,6-difluorophenyl)amino)-4-oxobut-2-en-1-yl)-7-oxa-2-azaspiro[3.5]nonan-2-ium 2,2,2-trifluoroacetate] | 37.7
6 | Cc1nc2c3c(c(C(F)(F)F)cc2n1C)-c1cccn2c(C(=O)c4cc(F)c(NC(=O)/C=C/CNCC5(CO)CC5)c(F)c4)cc(c12)CCO3 [Example 281, (E)-4-((4-(9,10-dimethyl-7-(trifluoromethyl)-13,14-dihydro-9H-imidazo-[4″,5″:5′,6′]benzo[1′,2′: 2,3]oxocino[4,5,6-hi]-indolizine-2-carbonyl)-2,6-difluorophenyl)-amino)-N-((1-(hydroxy-methyl)cyclopropyl)meth-yl)-4-oxobut-2-en-1-aminium 2,2,2-trifluoro-acetate] | 3.8
7 | CN1CCc2cc(C(=O)c3cc(F)c(NC(=O)/C=C/CNC4(C)COC4)c(F)c3)n3cccc(c23)-c2c(C(F)(F)F)cc3c(cnn3C)c21 [Example 283, (E)-N-(4-(9,12-dimethyl-7-(trifluoromethyl)-9,12,13,14-tetrahydroindolizino[8′,1′:4,5,6]azocino[2,3-e]indazole-2-carbonyl)-2,6-difluorophenyl)-4-((3-methyloxetan-3-yl)amino)but-2-enamide] | 64.7
8 | Cc1nc2c3c(c(C(F)(F)F)cc2n1C)-c1cccn2c(C(=O)c4cc(F)c(NC(=O)/C=C/CN5CC(F)C5)c(F)c4)cc(c12)CCN3C [Example 285, (E)-N-(2,6-difluoro-4-(9,10,12-trimethyl-7-(trifluoromethyl)-9,12,13,14-tetrahydroimidazo[4″,5″:5′,6′]benzo[1′,2′:2,3]azocino[4,5,6-hi]indolizine-2-carbonyl)phenyl)-4-(3-fluoroazetidin-1-yl)but-2-enamide] | 85
9 | COCc1nc2c3c(c(OC)cc2n1C)-c1cccn2c(C(=O)c4cc(F)c(NC(=O)/C(F)=C/CNC5(C)CC5)c(F)c4)cc(c12)CCN3C [Example 286, (Z)-N-(2,6-difluoro-4-(7-methoxy-10-(methoxymethyl)-9,12-dimethyl-9,12,13,14-tetrahydroimidazo[4″,5″:5′,6′]benzo[1′,2′:2,3]azocino[4,5,6-hi]indolizine-2-carbonyl)phenyl)-2-fluoro-4-((1-methylcyclopropyl)amino)but-2-enamide] | 92.8
10 | COCc1nc2c3c(c(OC)cc2n1C)-c1cccn2c(C(=O)c4cc(F)c(NC(=O)/C=C/CNC(C)(C)C)c(F)c4)cc(c12)CCN3C [Example 288, mono((E)-2-(4-(4-(tert-butylammonio)but-2-enamido)-3,5-difluoro-benzoyl)-7-methoxy-10-(methoxymethyl)-9,12-dimethyl-9,12,13,14-tetra-hydroimidazo[4″,5″:5′,6′]-benzo[1′,2′:2,3]azocino-[4,5,6-hi]indolizin-11-ium) mono-(2,2,2-trifluoroacetate)] | 8.15
11 | COCc1nc2c3c(c(OC)cc2n1C)-c1cccn2c(C(=O)c4cc(F)c(NC(=O)/C=C/CN5CC[C@H](O)C5)c(F)c4)cc(c12)CCN3C [Example 289, mono(2-(3,5-difluoro-4-((E)-4-((3S)-3-hydroxy-pyrrolidin-1-ium-1-yl)but-2-enamido)benzoyl)-7-methoxy-10-(methoxy-methyl)-9,12-dimethyl-9,12,13,14-tetrahydro-imidazo[4″,5″:5′,6′]benzo-[1′,2′:2,3]azocino[4,5,6-hi]indolizin-11-ium) mono(2,2,2-trifluoro-acetate)] | 68.8
12 | COCc1nc2c3c(c(OC)cc2n1C)-c1cccn2c(C(=O)c4cc(F)c(NC(=O)/C=C/CNC(C)(C)C5CC5)c(F)c4)cc(c12)CCN3C [Example 290, mono((E)-2-(4-(4-((2-cyclopropylpropan-2-yl)-ammonio)but-2-enamido)-3,5-difluorobenzoyl)-7-methoxy-10-(methoxy-methyl)-9,12-dimethyl-9,12,13,14-tetrahydro-imidazo[4″,5″:5′,6′]benzo-[1′,2′:2,3]azocino[4,5,6-hi]indolizin-11-ium) mono(2,2,2-trifluoro-acetate)] | 11.1
13 | COCc1nc2c3c(c(OC)cc2n1C)-c1cccn2c(C(=O)c4cc(F)c(NC(=O)/C=C/CNC5CC6(COC6)C5)c(F)c4)cc(c12)CCN3C [Example 291, (E)-4-((2-oxaspiro[3.3]-heptan-6-yl)amino)-N-(2,6-difluoro-4-(7-meth-oxy-10-(methoxymethyl)-9,12-dimethyl-9,12,13,14-tetrahydroimidazo[4″,5″: 5′,6′]benzo[1′,2′:2,3]-azocino[4,5,6-hi]indol-izine-2-carbonyl)phenyl) but-2-enamide] | 5.55
14 | Cc1nc2c3c(c(C(F)(F)F)cc2n1C)-c1cccn2c(C(=O)c4cc(F)c(NC(=O)C(F)=CCN5CCCC5CO)c(F)c4)cc(c12)CCO3 [Example 294, mono(2-(3,5-difluoro-4-((Z)-2-fluoro-4-(2S)-2-(hydroxymethyl)pyrrol-idin-1-ium-1-yl)but-2-enamido)benzoyl)-9,10-dimethyl-7-(trifluorometh-yl)-13,14-dihydro-9H-imidazo[4″,5″:5′,6′]benzo-[1′,2′:2,3]oxocino[4,5,6-hi]indolizin-11-ium) mono(2,2,2-trifluoro-acetate)] | 59.6
15 | Cc1nc2c3c(c(C(F)(F)F)cc2n1C)-c1cccn2c(C(=O)c4cc(F)c(NC(=O)/C(F)=C/CNCC5(CO)CC5)c(F)c4)cc(c12)CCO3 [Example 295, mono((Z)-2-(3,5-difluoro-4-(2-fluoro-4-(((1-(hydroxymethyl)cyclo-propyl)methyl)ammonio)-but-2-enamido)benzoyl)-9,10-dimethyl-7-(trifluoro-methyl)-13,14-dihydro-9H-imidazo[4″,5″:5′,6′]-benzo[1′,2′:2,3]oxocino-[4,5,6-hi]indolizin-11-ium) mono(2,2,2-trifluoro-acetate)] | 25.3
16 | Cc1nc2c3c(c(C(F)(F)F)cc2n1C)-c1cccn2c(C(=O)c4cc(F)c(NC(=O)/C(F)=C/CNC5CC6(COC6)C5)c(F)c4)cc(c12)CCO3 [Example 297, (Z)-4-((2-oxaspiro[3.3]-heptan-6-yl)amino)-N-(4-(9,10-dimethyl-7-(trifluoromethyl)-13,14-dihydro-9H-imidazo-[4″,5″:5′,6′]benzo[1′,2′: 2,3]oxocino[4,5,6-hi]-indolizine-2-carbonyl)-2,6-difluorophenyl)-2-fluorobut-2-enamide] | 26.7
17 | Cc1nc2c3c(c(OC(F)F)cc2n1C)-c1cccn2c(C(=O)c4cc(F)c(NC(=O)/C=C/CNC5(C)CC5)c(F)c4)cc(c12)CCN3C [Example 300, (E)-N-(4-(7-(difluoromethoxy)-9,10,12-trimethyl-9,12,13,14-tetrahydroimidazo[4″,5″:5′,6′]benzo[1′,2′:2,3]azocino[4,5,6-hi]indolizine-2-carbonyl)-2,6-difluorophenyl)-4-((1-methylcyclopropyl)amino)but-2-enamide] | 1.22
18 | (2S)-1-((Z)-4-((4-(9,10- dimethyl-7-(trifluorometh- yl)-13,14-dihydro-9H- imidazo[4″,5″:5′,6′]benzo- [1′,2′:2,3loxocino[4,5,6- hi]indolizine-2-carbonyl)- 2,6-difluorophenyl)amino)- 3-fluoro-4-oxobut-2-en-1- yl)-2-(hydroxymethyl)- azetidin-1-ium2,2,2- trifluoroacetate [Example 262] | 15.1
